Literature values as cited in patent publication US20120328537A1, “Topical wound management formulation” (priority 2011, published 2012).

Test system: Strep Mutans
Conditions: in particular Strep Mutans, the main bacteria responsible for dental caries

Question: Which growth of bacteria does the source give for `OC[C@@H](O)[C@H](O)[C@@H](O)CO` [Xylitol] here?
Answer: Its growth of bacteria is “inhibit the growth of bacteria”.
